“Also recorded” adds a separate entry of the source.
Columns and labels:
[1] = NOAEL (no-observed-adverse-effect-level)
nerve tissue = details: previous studies; fluorescence nerve imaging; cited from earlier work
[2] = Solubility testing in ultrapure water; details: kinetic from dmso stock
Method: Each compound was dissolved at high concentration (50 mg/mL) in dimethyl sulfoxide (DMSO) to create a stock solution. Stock solutions were spiked into ultrapure water beginning with a 50 μg/mL concentration and the aqueous solution was vortexed to mix. Resulting solutions were centrifuged at 15,000 rpm for 2 min and examined for a pellet or precipitation signifying insoluble compound.

[3] = no-observed-adverse-effect-level

Compound | NOAEL ([1]; in vivo) [mg/kg] | nerve specificity (nerve tissue) | solubility [2] [mg/mL] | NOAEL [1, 3] [mg/kg]
CCNc1cc2oc3cc(=[N+](CC)CC)ccc-3nc2cc1C [Comparative Example No. 1, 3-(diethyl-λ4-azaneylidene)-N-ethyl-8-methyl-3H-phenoxazin-7-amine, reference compound] | 3 | high nerve specificity | 0.1 | 
CCNc1cc2oc3c/c(=[N+](\CC)CCCS(=O)(=O)[O-])ccc-3nc2cc1C [Example No. 1, (E)-3-(ethyl(7-(ethylamino)-8-methyl-3H-phenoxazin-3-ylidene)ammonio)propane-1-sulfonate] | 30 |  | > 5 | 
CCNc1cc2oc3cc(=[N+](CCOCCOCCOC)CCOCCOCCOC)ccc-3nc2cc1C [Example No. 9, N-(7-(ethylamino)-8-methyl-3H-phenoxazin-3-ylidene)-2-(2-(2-methoxyethoxy)ethoxy)-N-(2-(2-(2-methoxyethoxy)ethoxy)ethyl)ethan-1-aminium] | 30 |  | > 5 | 
CC/N=c1/cc2oc3cc(NCC)c(C)cc3nc-2cc1C [Oxazine 4] |  | high nerve-specificity; also recorded: high nerve specificity |  | 
(E)-N-ethyl-N-(7-(ethylamino)-8-methyl-3H-phenoxazin-3-ylidene)-2-(2-(2-methoxyethoxy)ethoxy)ethan-1-aminium [Example No. 7] |  |  |  | 5
(E)-N^1-ethyl-N^1-(7-(ethylamino)-8-methyl-3H-phenoxazin-3-ylidene)-N^3,N^3,N^3-trimethylpropane-1,3-diaminium [Example No. 2] |  |  |  | 2
N-(7-(ethylamino)-8-methyl-3H-phenoxazin-3-ylidene)-2-(2-methoxyethoxy)-N-(2-(2-methoxyethoxy)ethyl)ethan-1-aminium [Example No. 8] |  |  |  | 10
N-(7-(ethylamino)-8-methyl-3H-phenoxazin-3-ylidene)-2-methoxy-N-(2-methoxyethyl)ethan-1-aminium [Example No. 5] |  |  |  | 4
